Test results reported in patent US12139492B2 (Endotarget Inc., priority 2021, dated 2024).
Read-outs that look alike come from different tables or passages of the source.

Tests used:
Mino cells = test: Antiproliferative effect, MTS cell viability assay, Mino cells; format: cell-based; details: Mino mantle cell lymphoma cells, read-out: IC50 (anti-proliferation) Mino cells
Method in brief: (§1)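 Tested at six concentrations (0 to 10 μM in tenfold steps), 72 h; viability by MTS, A490.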

JeKo-1 cells = test: Antiproliferative effect, MTS cell viability assay, JeKo-1 cells; format: cell-based; details: JeKo-1 mantle cell lymphoma cells, read-out: IC50 (anti-proliferation) JeKO-1 cells
Method in brief: as §1

BTK = BTK (Homo sapiens, UniProt Q06187); test: Degradation of BTK protein in Namalwa cells (Western blot; DC50, Dmax); details: for DC50: cell line not given; for degradation of BTK protein: Namalwa B lymphocyte cells, various concentrations, 24 hours, Western blot
[1] = read-out: DC50 (BTK degradation), concentration giving 50% reduction of BTK expression level
[2] = read-out: Dmax (BTK degradation)

BTK, sequence (Q06187 whole entry): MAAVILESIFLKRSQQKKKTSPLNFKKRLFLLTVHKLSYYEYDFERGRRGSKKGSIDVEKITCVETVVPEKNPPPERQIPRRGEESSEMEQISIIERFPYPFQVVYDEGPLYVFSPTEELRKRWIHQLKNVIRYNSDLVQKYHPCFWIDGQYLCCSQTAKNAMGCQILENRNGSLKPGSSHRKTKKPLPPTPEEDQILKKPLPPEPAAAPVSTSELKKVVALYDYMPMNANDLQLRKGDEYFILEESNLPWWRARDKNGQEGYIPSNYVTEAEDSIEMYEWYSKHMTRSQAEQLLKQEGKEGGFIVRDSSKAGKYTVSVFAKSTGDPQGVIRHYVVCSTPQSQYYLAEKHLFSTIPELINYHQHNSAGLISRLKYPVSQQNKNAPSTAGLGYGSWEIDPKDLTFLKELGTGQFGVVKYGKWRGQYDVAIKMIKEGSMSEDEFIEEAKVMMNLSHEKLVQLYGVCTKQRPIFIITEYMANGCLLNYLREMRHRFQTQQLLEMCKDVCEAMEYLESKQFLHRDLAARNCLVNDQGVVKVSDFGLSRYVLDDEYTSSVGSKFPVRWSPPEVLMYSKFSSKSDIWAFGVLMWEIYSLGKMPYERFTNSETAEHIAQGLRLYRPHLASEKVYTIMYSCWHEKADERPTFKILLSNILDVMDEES

| Compound | DC50 (BTK; [1]) | Dmax (BTK; [2]) | Dmax (BTK) | DC50 (BTK; BTK degradation) | degradation of BTK protein (BTK) | IC50 (Mino cells; Homo sapiens, MINO) | IC50 (JeKo-1 cells; Homo sapiens) | IC50 (Mino cells; Homo sapiens) | IC50 (Mino cells) | IC50 (JeKo-1 cells) |
| --- | --- | --- | --- | --- | --- | --- | --- | --- | --- | --- |
| Nc1ncnc2c1c(-c1ccc(Oc3ccccc3)cc1)nn2C1CCN(CCN2CCC(CN3CCN(c4ccc(N5CCC(=O)NC5=O)cc4)CC3)C2)CC1 (stereo not drawn) [Compound 549, 1-(4-(4-((1-(2-(4-(4-amino-3-(4-phenoxyphenyl)-1H-pyrazolo[3,4-d]pyrimidin-1-yl)piperidin-1-yl)ethyl)pyrrolidin-3-yl)methyl)piperazin-1-yl)phenyl)dihydropyrimidine-2,4(1H,3H)-dione] | < 10 nM | > 90% | – | – | – | < 1000 nM | < 1000 nM | – | – | – |
| NC(=O)c1c(-c2ccc(Oc3ccccc3)cc2)nn2c1NCCC2C1CCN(C(=O)N2CCC(CN3CCC(c4ccc5c(c4)C(=O)N(C4CCC(=O)NC4=O)C5=O)CC3)CC2)CC1 (stereo not drawn) [Compound 279, 7-(1-(4-((4-(2-(2,6-dioxopiperidin-3-yl)-1,3-dioxoisoindolin-5-yl)piperidin-1-yl)methyl)piperidine-1-carbonyl)piperidin-4-yl)-2-(4-phenoxyphenyl)-4,5,6,7-tetrahydropyrazolo[1,5-a]pyrimidine-3-carboxamide] | – | – | > 90% | 10 to 50 nM | – | 1000 to 10000 nM | 1000 to 10000 nM | – | – | – |
| NC(=O)c1c(-c2ccc(Oc3ccccc3)cc2)nn2c1NCC[C@H]2C1CCN(C(=O)N2CCC(CN3CCN(c4ccc5c(c4)C(=O)N(C4CCC(=O)NC4=O)C5=O)CC3)CC2)CC1 (stereo partly drawn) [Compound 291, (7S)-7-(1-(4-((4-(2-(2,6-dioxopiperidin-3-yl)-1,3-dioxoisoindolin-5-yl)piperazin-1-yl)methyl)piperidine-1-carbonyl)piperidin-4-yl)-2-(4-phenoxyphenyl)-4,5,6,7-tetrahydropyrazolo[1,5-a]pyrimidine-3-carboxamide] | – | – | > 90% | 10 to 50 nM | – | < 1000 nM | < 1000 nM | – | – | – |
| Nc1ncnc2c1c(-c1ccc(Oc3ccccc3)cc1)nn2C1CCN(CCN2CCC(N3CCN(c4ccc5c(c4)C(=O)N(C4CCC(=O)NC4=O)C5=O)CC3)CC2)CC1 (stereo not drawn) [Compound 457, 5-(4-(1-(2-(4-(4-amino-3-(4-phenoxyphenyl)-1H-pyrazolo(3,4-d)pyrimidin-1-vi)piperidin-1-yl)ethyl)piperidin-4-yl)piperazin-1-yl)-2-(2,6-dioxopiperidin-3-yl)isoindoline-1,3-dione] | < 10 nM | > 90% | – | – | – | – | < 1000 nM | < 1000 nM | – | – |
| Nc1ncnc2c1c(-c1ccc(Oc3ccccc3)cc1)nn2C1CCN(CC2CCN(CCCN3CCN(c4ccc(N5CCC(=O)NC5=O)cc4)CC3)CC2)CC1 [Compound 582, 1-(4-(4-(3-(4-((4-(4-amino-3-(4-phenoxyphenyl)-1H-pyrazolo[3,4-d]pyrimidin-1-yl)piperidin-1-yl)methyl)piperidin-1-yl)propyl)piperazin-1-yl)phenyl)dihydropyrimidine-2,4(1H,3H)-dione] | 10 to 50 nM | > 90% | – | – | – | < 1000 nM | 1000 to 10000 nM | – | – | – |
| Nc1ncnc2c1c(-c1ccc(Oc3ccccc3)cc1)nn2C1CCN(CC2CCN(CC3CCN(CC4CN(c5ccc6c(c5)CN(C5CCC(=O)NC5=O)C6=O)C4)CC3)CC2)CC1 (stereo not drawn) [Compound 432, 3-(5-(3-((4-((4-((4-(4-amino-3-(4-phenoxyphenyl)-1H-pyrazolo[3,4-d]pyrimidin-1-yl)piperidin-1-yl)methyl)piperidin-1-yl)methyl)piperidin-1-yl)methyl)azetidin-1-yl)-1-oxoisindolin-2-yl)piperidine-2,6-dione] | 10 to 50 nM | > 90% | – | – | – | < 1000 nM | < 1000 nM | – | – | – |
| NC(=O)c1c(-c2ccc(Oc3ccccc3)cc2)nn2c1NCCC2C1CCN(C2CCN(C(=O)N3CCN(c4ccc5c(c4)CN(C4CCC(=O)NC4=O)C5=O)CC3)CC2)CC1 (stereo not drawn) [Compound 338, 7-(1′-(4-(2-(2,6-dioxopiperidin-3-yl)-1-oxoisoindolin-5-yl)piperazine-1-carbonyl)-[1,4′-bipiperidin]-4-yl)-2-(4-phenoxyphenyl)-4,5,6,7-tetrahydropyrazolo[1,5-a]pyrimidine-3-carboxamide] | – | – | > 50% | > 50 nM | – | 1000 to 10000 nM | > 10000 nM | – | – | – |
| Nc1ncnc2c1c(-c1ccc(Oc3ccccc3)cc1)nn2[C@@H]1CCCN(C2CN(C(=O)N3CC(N4CCN(c5ccc6c(c5)CN(C5CCC(=O)NC5=O)C6=O)CC4)C3)C2)C1 (stereo partly drawn) [Compound 480, 3-(5-(4-(1-(3-((R)-3-(4-amino-3-(4-phenoxyphenyl)-1H-pyrazolo[3,4-d]pyrimidin-1-yl)piperidin-1-yl)azetidine-1-carbonyl)azetidin-3-yl)piperazin-1-yl)-1-oxoisoindolin-2-yl)piperidine-2,6-dione] | < 10 nM | > 90% | – | – | dose-dependent degradation | < 1000 nM | 1000 to 10000 nM | – | – | – |
| NC(=O)c1c(-c2ccc(Oc3ccccc3)cc2)nn2c1NCC[C@H]2C1CCN(C2CCN(C(=O)N3CCC(N4CCC(c5ccc6c(c5)C(=O)N(C5CCC(=O)NC5=O)C6=O)CC4)CC3)CC2)CC1 (stereo partly drawn) [Compound 387, (7S)-7-(1′-(4-(2-(2,6-dioxopiperidin-3-yl)-1,3-dioxoisoindolin-5-yl)-[1,4′-bipiperidine]-1′-carbonyl)-[1,4′-bipiperidin]-4-yl)-2-(4-phenoxyphenyl)-4,5,6,7-tetrahydropyrazolo[1,5-a]pyrimidine-3-carboxamide] | – | – | > 90% | 10 to 50 nM | – | 1000 to 10000 nM | 1000 to 10000 nM | – | – | – |

More lines, main results first:

| DC50 (BTK; [1]) | Dmax (BTK; [2]) | Dmax (BTK) | DC50 (BTK; BTK degradation) | degradation of BTK protein (BTK) | Compound | IC50 (Mino cells; Homo sapiens, MINO) | IC50 (JeKo-1 cells; Homo sapiens) | IC50 (Mino cells; Homo sapiens) | IC50 (Mino cells) | IC50 (JeKo-1 cells) |
| --- | --- | --- | --- | --- | --- | --- | --- | --- | --- | --- |
| 10 to 50 nM | > 90% | – | – | – | Nc1ncnc2c1c(-c1ccc(Oc3ccccc3)cc1)nn2C1CCN(C2CCN(CCCN3CCC(c4ccc(N5CCC(=O)NC5=O)cc4)CC3)CC2)CC1 [Compound 571, 1-(4-(1-(3-(4-(4-amino-3-(4-phenoxyphenyl)-1H-pyrazolo[3,4-d]pyrimidin-1-yl)-[1,4′-bipiperidin]-1′-yl)propyl)piperidin-4-yl)phenyl)dihydropyrimidine-2,4(1H,3H)-dione] | < 1000 nM | < 1000 nM | – | – | – |
| – | – | > 75% | > 50 nM | – | Nc1ncnc2c1c(-c1ccc(Oc3ccccc3)cc1)nn2C1CCN(C2CCN(C(=O)N3CCN(CCCC4CCN(c5ccc6c(c5)C(=O)N(C5CCC(=O)NC5=O)C6=O)CC4)CC3)CC2)CC1 (stereo not drawn) [Compound 259, 5-(4-(3-(4-(4-(4-amino-3-(4-phenoxyphenyl)-1H-pyrazolo[3,4-d]pyrimidin-1-yl)-[1,4′-bipiperidine]-1′-carbonyl)piperazin-1-yl)propyl)piperidin-1-yl)-2-(2,6-dioxopiperidin-3-yl)isoindoline-1,3-dione] | > 10000 nM | 1000 to 10000 nM | – | – | – |
| – | – | > 90% | 10 to 50 nM | – | Nc1ncnc2c1c(-c1ccc(Oc3ccccc3)cc1)nn2C1CCN(C2CCN(C(=O)N3CCC(CCN4CCC(c5ccc6c(c5)C(=O)N(C5CCC(=O)NC5=O)C6=O)CC4)CC3)CC2)CC1 (stereo not drawn) [Compound 253, 5-(1-(2-(1-(4-(4-amino-3-(4-phenoxyphenyl)-1H-pyrazolo[3,4-d]pyrimidin-1-yl)-[1,4′-bipiperidine]-1′-carbonyl)piperidin-4-yl)ethyl)piperidin-4-yl)-2-(2,6-dioxopiperidin-3-yl)isoindoline-1,3-dione] | 1000 to 10000 nM | 1000 to 10000 nM | – | – | – |
| < 10 nM | > 90% | – | – | dose-dependent degradation | Nc1ncnc2c1c(-c1ccc(Oc3ccccc3)cc1)nn2C1CCN(CCOCCOCCN2CCC(c3ccc4c(c3)C(=O)N(C3CCC(=O)NC3=O)C4=O)CC2)CC1 (stereo not drawn) [Compound 418, 5-(1-(2-(2-(2-(4-(4-amino-3-(4-phenoxyphenyl)-1H-pyrazolo[3,4-d]pyrimidin-1-yl)piperidin-1-yl)ethoxy)ethoxy)ethyl)piperidin-4-yl)-2-(2,6-dioxopiperidin-3-yl)isoindoline-1,3-dione] | – | – | – | 1000 to 10000 nM | 1000 to 10000 nM |
| < 10 nM | > 90% | – | – | – | Nc1ncnc2c1c(-c1ccc(Oc3ccccc3)cc1)nn2C1CCC(C(=O)NCCN2CCN(c3ccc4c(c3)CN(C3CCC(=O)NC3=O)C4=O)CC2)CC1 (stereo not drawn) [Compound 523, 4-(4-amino-3-(4-phenoxyphenyl)-1H-pyrazolo[3,4-d]pyrimidin-1-yl)-N-(2-(4-(2-(2,6-dioxopiperidin-3-yl)-1-oxoisoindolin-5-yl)piperazin-1-yl)ethyl)cyclohexane-1-carboxamide] | < 1000 nM | < 1000 nM | – | – | – |
| – | – | > 50% | > 50 nM | – | Nc1ncnc2c1c(-c1ccc(Oc3ccccc3)cc1)nn2C1CCN(C2CCN(C(=O)N3CCN(c4ccc5c(c4)C(=O)N(C4CCC(=O)NC4=O)C5=O)CC3)CC2)CC1 (stereo not drawn) [Compound 229, 5-(4-(4-(4-amino-3-(4-phenoxyphenyl)-1H-pyrazolo[3,4-d]pyrimidin-1-yl)-[1,4′-bipiperidine]-1′-carbonyl)piperazin-1-yl)-2-(2,6-dioxopiperidin-3-yl)isoindoline-1,3-dione] | > 10000 nM | 1000 to 10000 nM | – | – | – |
| < 10 nM | > 90% | – | – | – | Nc1ncnc2c1c(-c1ccc(Oc3ccccc3)cc1)nn2C1CCN(CCN2CCC(CC3CCN(c4ccc(NC5CCC(=O)NC5=O)cc4)CC3)CC2)CC1 (stereo not drawn) [Compound 559, 3-((4-(4-((1-(2-(4-(4-amino-3-(4-phenoxyphenyl)-1H-pyrazolo[3,4-d]pyrimidin-1-yl)piperidin-1-yl)ethyl)piperidin-4-yl)methyl)piperidin-1-yl)phenyl)amino)piperidine-2,6-dione] | < 1000 nM | < 1000 nM | – | – | – |
